Measurements published in patent publication US8492559B2, “Substituted indole compounds” (Gruenenthal GmbH, priority 2009, dated 2013).

Each molecule was assayed against T1, B1R receptor of the rat (rB1R) (Rattus norvegicus, UniProt P97583) (assay: Functional investigation on the bradykinin 1 receptor (B1R), FLIPR Ca2+ assay, rB1R cells). Conditions: CHO-K1, 10 μM test substance; CHO K1 cells with rat B1R; agonist Des-Arg9 bradykinin; % of maximum achievable inhibition; read-out: B1R antagonism, rat [10 μM] % inhibition.
T1 construct: expressed in transfected cells; host or cells: CHO K1 cells
T1 sequence (P97583 1-337): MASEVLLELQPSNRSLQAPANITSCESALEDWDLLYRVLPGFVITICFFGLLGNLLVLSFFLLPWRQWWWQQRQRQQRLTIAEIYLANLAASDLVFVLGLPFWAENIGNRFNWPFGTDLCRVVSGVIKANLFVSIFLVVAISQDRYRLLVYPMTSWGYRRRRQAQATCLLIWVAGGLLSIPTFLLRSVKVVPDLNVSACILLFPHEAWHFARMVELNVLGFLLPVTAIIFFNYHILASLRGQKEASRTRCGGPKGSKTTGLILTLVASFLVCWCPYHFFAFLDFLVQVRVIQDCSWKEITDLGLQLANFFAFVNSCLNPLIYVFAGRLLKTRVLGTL
Format: cell-based
Procedure, shortened: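 Cells plated at 20,000-35,000/well, incubated overnight at 37° C, loaded with Fluo-4 (2.13 μM, 60 min, 37° C, or 2.5 μM in buffer A), then read in FLIPR (λex 488, λem 540 nm). Agonist: Lys-Des-[MUT] bradykinin (0.5 nM) or Des-[MUT] bradykinin (100 nM). IC50 from % inhibition versus maximum, n=2-3, N>=2.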

inhibition at 10 µM	Compound
67%	O=C(CCn1ccc2cccc(N3Cc4cccc(Cl)c4C3=O)c21)NCC1CCN(c2ccncc2)CC1 [G_CC-123, 3-[7-(4-Chloro-3-oxo-1,2-dihydro-isoindol-2-yl)-1H-indol-1-yl]-N-[(1-pyridin-4-yl-piperidin-4-yl)-methyl]-propionamide]
61%	CN1CCN(C2(c3cccc(F)c3)CCN(C(=O)Cn3ccc4ccc(N5Cc6cccc(Cl)c6C5=O)cc43)CC2)CC1 [G_CC-128, 7-Chloro-2-[1-[2-[4-(3-fluorophenyl)-4-(4-methyl-piperazin-1-yl)-piperidin-1-yl]-2-oxo-ethyl]-1H-indol-6-yl]-2,3-dihydro-isoindol-1-one]
52%	CN(CCCN1CCN(c2ccncc2)CC1)C(=O)Cn1ccc2ccc(N3Cc4cccc(Cl)c4C3=O)cc21 [G_CC-138, 2-[6-(4-Chloro-3-oxo-1,2-dihydro-isoindol-2-yl)-1H-indol-1-yl]-N-methyl-N-[3-(4-pyridin-4-yl-piperazin-1-yl)-propyl]-acetamide]
50%	COc1cc(C)c(S(=O)(=O)Nc2cccc3ccn(CC(=O)N4CCN(C(=O)c5cccnc5)CC4)c23)c(C)c1 [G_CC-139, 4-Methoxy-2,6-dimethyl-N-[1-[2-oxo-2-[4-(pyridin-3-carbonyl)-piperazin-1-yl]-ethyl]-1H-indol-7-yl]-benzenesulfonic acid amide]

Compound	inhibition at 10 µM
CN(CCC1CCC(c2ccccc2)(N(C)C)CC1)C(=O)CCn1ccc2ccc(N3Cc4cccc(Cl)c4C3=O)cc21 (centres unmarked) [G_CC-127, 3-[6-(4-Chloro-3-oxo-1,2-dihydro-isoindol-2-yl)-1H-indol-1-yl]-N-[2-(4-dimethylamino-4-phenyl-cyclohexyl)-ethyl]-N-methyl-propionamide]	63%
